For this experiment, the target named is T1, human tyrosinase (Homo sapiens, UniProt P14679).
T1 sequence (P14679 19-529): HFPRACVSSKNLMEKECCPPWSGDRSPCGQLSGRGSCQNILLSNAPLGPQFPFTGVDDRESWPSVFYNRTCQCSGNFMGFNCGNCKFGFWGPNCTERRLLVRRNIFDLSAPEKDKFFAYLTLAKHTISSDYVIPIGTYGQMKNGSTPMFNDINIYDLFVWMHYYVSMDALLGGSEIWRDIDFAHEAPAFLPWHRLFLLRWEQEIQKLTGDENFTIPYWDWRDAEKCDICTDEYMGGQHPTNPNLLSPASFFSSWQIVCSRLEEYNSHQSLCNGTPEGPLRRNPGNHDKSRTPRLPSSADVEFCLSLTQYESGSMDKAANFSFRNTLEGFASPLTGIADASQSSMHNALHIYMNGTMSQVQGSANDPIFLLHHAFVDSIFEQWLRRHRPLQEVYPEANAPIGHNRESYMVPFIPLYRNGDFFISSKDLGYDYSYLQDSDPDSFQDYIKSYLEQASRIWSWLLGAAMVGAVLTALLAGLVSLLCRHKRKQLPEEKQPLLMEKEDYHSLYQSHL
The experiment in a line: Enzyme test: conversion of L-DOPA to L-dopaquinone by human tyrosinase (MBTH, absorption at 490 nm). The experiment is classed as biochemical. The conditions noted are these: Concentration 100 μg/ml; substrate L-DOPA; read-out: Inhibition (% of control) of tyrosinase activity. From the text: The efficacy of the thiazoles has been verified using an enzyme test by measuring the conversion of L-DOPA to L-dopaquinone by a human tyrosinase. In this method that is known from the literature (Winder, A. J. and Harris H., New assays for the tyrosine hydroxylase and dopa oxidase activities of tyrosinase. Eur. J. Biochem. (1991), 198, 317-26), the reaction product L-dopaquinone is reacted with MBTH (3-methyl-2-benzothiazoline hydrazone) is converted to form a pink-colored substance, the increase of which over time is measured by absorption at 490 nm. In table one, efficacy data for some of the claimed substances are shown by way of example. It may be concluded therefrom that the substances according to the invention are extremely effective pigmentation-inhibiting substances.
As a reminder, the inhibition is the percentage by which the read-out fell short of the control. As to `Oc1ccc(-c2csc(NN3CCOCC3)n2)c(O)c1` [Compound 24], the inhibition at 100 µg/mL stood at 82.9%.

With `CN(c1ccccc1)c1nc(-c2ccc(O)cc2)cs1` [Compound 22], the inhibition at 100 µg/mL was 87.9%. On to `CCN(CC)CCNc1nc(-c2ccc(O)cc2O)cs1` [Compound 28], for which the inhibition at 100 µg/mL is 80.5%. On to `Oc1ccc(-c2csc(Nc3ccccc3)n2)c(O)c1` [Compound 2], for which the inhibition at 100 µg/mL was 100%. The result for `Oc1ccc(-c2csc(N3CCOCC3)n2)c(O)c1` [Compound 25] reads 90.3%; that for `Oc1ccc(-c2csc(Nc3ncccn3)n2)c(O)c1` [Compound 1], 93.1%.

In the case of `Oc1ccc(-c2csc(Nc3ncccn3)n2)cc1` [Compound 20], the inhibition at 100 µg/mL amounted to 61.3%. For the molecule `Oc1ccc(-c2csc(Nc3ccccn3)n2)cc1` [Compound 21], the inhibition at 100 µg/mL came to 87.6%. `O=C(Nc1nc(-c2ccc(O)cc2O)cs1)c1ccccc1` [Compound 26]: the inhibition at 100 µg/mL worked out at 100%.

The record behind these values is patent publication US8920785B2, “Cosmetic or dermatological preparations with a content of one or more thiazole derivates” (Beiersdorf AG, priority 2010, dated 2014).
